Results taken from patent US8475848B2, “Cosmetic composition having anti-radical properties and corresponding application method” (Yves Saint Laurent Parfums, priority 2007, dated 2013).

How the values were obtained:
[1] = DPPH test on pure extracts (reduction of DPPH, optical density); format: biochemical; conditions: for % control (OD) / Activity (DPPH reduction): DPPH test
Source text: (§1) The activity of the pure extracts was studied by means of two biochemical tests: one was based on the reduction of 2,2-diphenyl-1-picrylhydrazyl (DPPH) by the anti-oxidants, and the other was based on the measurement of hydrogen peroxide (H2O2) in the reaction media. H2O2 is trapped by a specific reagent, “AmplexRed”. 2,2-diphenyl-1-picrylhydrazyl (DPPH) is a stable radical compound that is reduced to 1,1-diphenyl-2-picrylhydrazine by anti-oxidants. This reduction is followed by a color change in the DPPH solution (optical density measurement).
(§2) The pure extracts as well as the anti-oxidant references (α-tocopherol and BHA: butylated hydroxyanisole for DPPH, BHA alone for AmplexRed) were dissolved in ethanol. Controls using ethanol alone were produced in order to verify the absence of interference of this solvent.
The products for this test were tested starting from a concentration of 1 mg/ml in a power of ten series. The alpha-tocopherol positive control was tested at a concentration of 0.1 μM [micromolar] and the BHA was tested at a concentration of 50 μM.

[2] = H2O2/AmplexRed test on pure extracts (fluorescence); format: biochemical
Source text: as §1
AmplexRed is a compound which reacts in a stoichiometric manner with H2O2, producing a fluorescent red compound, resofurin, which can be measured by fluorescence. This test can detect small quantities of H2O2.
as §2
The products for this test were tested starting from a concentration of 1 μg/ml in a power of ten series. The BHA positive control was tested at concentrations of 50 μM and 500 μM.

irradiated skin explants = test: Lipid peroxidation test on irradiated skin explants, extracts associated with an insoluble mineral substrate dispersed in carnation oil; format: cell-based; conditions: reference (positive control), 5 mg/cm^2 topical, UVA+B
Method: Study of the activity of extracts associated with an insoluble mineral substrate dispersed in carnation oil were carried out using a lipid peroxidation test on irradiated skin explants. This test, which was carried out by applying the products topically, meant that the effects of non-hydrosoluble extracts could be studied in vitro.
Upon receipt, the skin explants were cut and placed in culture.
The test products or the reference (positive control=BHA) were then applied to the surface of the explants in a quantity of 5 mg/cm^2 [milligrams/square centimeter] and the explants were placed in an incubator for 24 h [hours] at 37° C. in the presence of 95% air and 5% CO2.
After incubation and washing, the explants for each series were exposed to irradiation using ultraviolet A and B (UVA+B) radiation. Irradiation was carried out using a SOL500 Sun Simulator lamp with an H2 filter and the exposure conditions were as follows: • UVA+B filter: • UVA: power 11.5 mW/cm^2 [milliwatt/square centimeter] i.e. 678.6 mJ/cm^2/minute [millijoule/square centimeter/minute]; • UVB: power 0.78 mW/cm^2, i.e. 47.1 mJ/cm^2/minute; • Irradiation period: 21 minutes; • i.e. approximately 1 J/cm^2 of UVB and 14 J/cm^2 of UVA.
Three other untreated control explants were kept away from the light. […]
The epidermis was then extracted and the viability of the cells was evaluated using MTT reduction. […]

SMILES | % control (OD) ([1]; 50 μM) | Activity (DPPH reduction) ([1]; 50 μM) | % control (fluorescence intensity) ([2]; 50 μM) | Activity (reduction of free H2O2) ([2]; 50 μM) | % control (fluorescence intensity) ([2]; 500 μM) | Activity (reduction of free H2O2) ([2]; 500 μM) | production of lipid peroxides after irradiation (in words) (irradiated skin explants) | % control (OD) ([1]; 0.1 μM) | Activity (DPPH reduction) ([1]; 0.1 μM) | reduction of DPPH (in words) ([1]; reference, 0.1 μM)
COc1ccc(O)c(C(C)(C)C)c1 [BHA, butylated hydroxyanisole] | 74% | +/− (25% reduction) | 38% | ++ (strong reduction more than 50%) | 34% | ++ (strong reduction more than 50%) | greatly reduced the production of lipid peroxides |  |  | 
Cc1c(C)c2c(c(C)c1O)CC[C@@](C)(CCC[C@H](C)CCC[C@H](C)CCCC(C)C)O2 [Tocopherol, α-tocopherol] |  |  |  |  |  |  |  | 9% | ++ (large reduction more than 50%) | clearly reduced the DPPH
